Test results taken from patent US20250206751A1, “HETEROCYCLIC COMPOUND FOR INDUCING DEGRADATION OF G12D MUTANT KRAS PROTEIN” (Astellas Pharma Inc., priority 2022, published 2025).

Tests used:
[1] = system: human G12D mutant KRAS-positive pancreatic cancer line AsPC-1; experiment: Non-anchorage-dependent cell growth inhibition, spheroid 3D cell culture (Test Example 3); type: cell-based; details: AsPC-1 spheroid 3D culture, 6 days, CellTiter Glo 2.0
Method in brief: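 AsPC-1 spheroids, 5×10^2 cells per well on low-adhesion round-bottom plates in RPMI 1640/10% FBS, dosed next day at 10 or 6 points spanning 10 μM to 0.3 nM final for 6 days at 37° C., 5% CO2. Viability by CellTiter Glo 2.0 luminescence; IC50 by Sigmoid-Emax regression, DMSO 100% and cell-free medium 0%.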

KRAS G12D protein = target: T1, KRAS G12D protein (Homo sapiens, UniProt P01116, G12D); experiment: KRAS degradation activity by Cell ELISA in AsPC-1 (Test Example 1); type: cell-based; details: AsPC-1 cells, cultured overnight with compound, corrected with β-actin, read-out: DC50 (50% degradation concentration of the amounts of KRAS)
T1 construct: host or cells: AsPC-1
T1 sequence (P01116 1-188 isoform P01116-2 G12D): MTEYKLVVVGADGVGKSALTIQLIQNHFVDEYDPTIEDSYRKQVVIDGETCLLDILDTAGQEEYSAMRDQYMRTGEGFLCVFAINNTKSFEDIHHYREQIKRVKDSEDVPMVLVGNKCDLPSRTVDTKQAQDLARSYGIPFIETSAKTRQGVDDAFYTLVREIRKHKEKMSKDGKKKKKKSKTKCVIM
Method in brief: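 AsPC-1 cells (KRAS G12D), 2.0×10^4/well, treated overnight with compound (10 points, 10 μM–0.3 nM final) in RPMI 1640/10% FBS. Fixed cells immunostained for G12D-specific Ras and β-actin, with near-IR fluorescence read. Ras/actin ratio scaled DMSO = 0% and actin-only = 100%, and DC50 fitted by Sigmoid-Emax regression.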

Row | IC50 ([1]; Homo sapiens, ASPC1, 144 h) [nM] | DC50 (KRAS G12D protein) [nM] | IC50 [1] [nM] | Structure (SMILES)
1 | 9 | 15 | – | Cc1ncsc1-c1ccc([C@H](CO)NC(=O)[C@@H]2C[C@@H](O)CN2C(=O)[C@H](C(C)C)n2cc(-c3ccc(COc4c(-c5c(C)c(F)cc6[nH]ncc56)c(C5CC5)cc5c(N(C)[C@H]6CCNC6)nc(OC[C@H]6CCCO6)nc45)cc3)nn2)cc1 (atropisomer, axis not shown; (M)) [Example 9, (4R)-1-[(2S)-2-{4-[4-({[(7M) 6-cyclopropyl-7-(6-fluoro-5-methyl-1H-indazol-4-yl)-4-{methyl[(3S)-pyrrolidin-3-yl]amino}-2-{[(2R)-oxolan-2-yl]methoxy}quinazolin-8-yl}oxy}methyl)phenyl]-1H-1,2,3-triazol-1-yl}-3-methylbutanoyl]-4-hydroxy-N-{(1R)-2-hydroxy-1-[4-(4-methyl-1,3-thiazol-5-yl)phenyl]ethyl}-L-prolinamide]
2 | 8 | 18 | – | CCN(c1nc(OC[C@H](C)OC)nc2c(OCc3ccc(-c4cn([C@H](C(=O)N5C[C@H](O)C[C@H]5C(=O)N[C@@H](CO)c5ccc(-c6scnc6C)cc5)C(C)C)nn4)cc3)c(-c3c(C)c(F)cc4[nH]ncc34)c(C3CC3)cc12)[C@H]1CCNC1 (atropisomer, axis not shown; (M)) [Example 50, (4R)-1-[(2S)-2-(4-{4-[({(7M)-6-cyclopropyl-4-{ethyl[(3S)-pyrrolidin-3-yl]amino}-7-(6-fluoro-5-methyl-1H-indazol-4-yl)-2-[(2S)-2-methoxypropoxy]quinazolin-8-yl}oxy)methyl)phenyl}-1H-1,2,3-triazol-1-yl)-3-methylbutanoyl]-4-hydroxy-N-{(1R)-2-hydroxy-1-[4-(4-methyl-1,3-thiazol-5-yl)phenyl]ethyl}-L-prolinamide]
3 | 10 | 10 | – | CCn1nccc1-c1ccc([C@H](CO)NC(=O)[C@@H]2C[C@@H](O)CN2C(=O)[C@H](C(C)C)n2cc(-c3ccc(COc4c(-c5c(C)c(F)cc6[nH]ncc56)c(C5CC5)cc5c(N(C)[C@H]6CCNC6)nc(OC[C@H](C)OC)nc45)cc3)nn2)cc1 (atropisomer, axis not shown; (M)) [Example 13]
4 | 10 | 7 | – | CO[C@@H](C)COc1nc(N(C)[C@@H]2CCNC2)c2cc(C3CC3)c(-c3c(C)c(F)cc4[nH]ncc34)c(OCc3ccc(-c4cn([C@H](C(=O)N5C[C@H](O)C[C@H]5C(=O)N[C@@H](CO)c5ccc(-c6scnc6C)cc5)C(C)C)nn4)cc3)c2n1 (atropisomer, axis not shown; (M)) [Example 53]
5 | – | 10 | 19 | CO[C@@H](C)COc1cc(N(C)[C@H]2CCNC2)c2cc(C3CC3)c(-c3c(C)c(F)cc4[nH]ncc34)c(OCc3ccc(-c4cn([C@H](C(=O)N5C[C@H](O)C[C@H]5C(=O)N[C@@H](CO)c5ccc(-c6scnc6C)cc5)C(C)C)nn4)cc3)c2n1 (atropisomer, axis not shown; (M)) [Example 11, (4R)-1-[(2S)-2-{4-[4-({[(7M)-6-cyclopropyl-7-(6-fluoro-5-methyl-1H-indazol-4-yl)-2-[(2S)-2-methoxypropoxy]-4-{methyl[(3S)-pyrrolidin-3-yl]amino}quinazolin-8-yl]oxy}methyl)phenyl]-1H-1,2,3-triazol-1-yl}-3-methylbutanoyl]-4-hydroxy-N-{(1R)-2-hydroxy-1-[4-(4-methyl-1,3-thiazol-5-yl)phenyl]ethyl}-L-prolinamide]
